Measurements as given in patent US12202835B2, “Substituted aromatic ring-linked dioxinoquinazolines and dioxinoquinolines as kinase inhibitors” (BEIJING SCITECH-MQ PHARMACEUTICALS LIMITED, priority 2018, dated 2025).

Columns and labels:
Ba/F3 LMNA-NTRK1 cells = assay: Assay for inhibiting the proliferation of Ba/F3 LMNA-NTRK1 cells (CCK-8); assay type: cell-based; details: Mus musculus, BaF3
Outline: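 Viability was read as absorbance at 450 nm following 1–2 h CCK-8 incubation at 37 °C, relative to control and blank wells.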

MHCC97H cells = assay: Assay for inhibiting the proliferation of MHCC97H cells (CCK-8); assay type: cell-based; details: Homo sapiens
Outline: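 Cells seeded in 96-well plates overnight, then exposed 72 h to 9 three-fold dilutions of compound (0.25% DMSO final). Viability by CCK-8 (1-2 h at 37° C., OD 450 nm), survival normalized to untreated and cell-free blanks; IC50 by curve fitting.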

MER kinase = MER kinase (Homo sapiens (Human), UniProt Q12866); assay: Assay of small molecular compounds for inhibiting the activity of MER kinase (LANCE TR-FRET); assay type: biochemical
MER kinase, sequence (Q12866 21-999): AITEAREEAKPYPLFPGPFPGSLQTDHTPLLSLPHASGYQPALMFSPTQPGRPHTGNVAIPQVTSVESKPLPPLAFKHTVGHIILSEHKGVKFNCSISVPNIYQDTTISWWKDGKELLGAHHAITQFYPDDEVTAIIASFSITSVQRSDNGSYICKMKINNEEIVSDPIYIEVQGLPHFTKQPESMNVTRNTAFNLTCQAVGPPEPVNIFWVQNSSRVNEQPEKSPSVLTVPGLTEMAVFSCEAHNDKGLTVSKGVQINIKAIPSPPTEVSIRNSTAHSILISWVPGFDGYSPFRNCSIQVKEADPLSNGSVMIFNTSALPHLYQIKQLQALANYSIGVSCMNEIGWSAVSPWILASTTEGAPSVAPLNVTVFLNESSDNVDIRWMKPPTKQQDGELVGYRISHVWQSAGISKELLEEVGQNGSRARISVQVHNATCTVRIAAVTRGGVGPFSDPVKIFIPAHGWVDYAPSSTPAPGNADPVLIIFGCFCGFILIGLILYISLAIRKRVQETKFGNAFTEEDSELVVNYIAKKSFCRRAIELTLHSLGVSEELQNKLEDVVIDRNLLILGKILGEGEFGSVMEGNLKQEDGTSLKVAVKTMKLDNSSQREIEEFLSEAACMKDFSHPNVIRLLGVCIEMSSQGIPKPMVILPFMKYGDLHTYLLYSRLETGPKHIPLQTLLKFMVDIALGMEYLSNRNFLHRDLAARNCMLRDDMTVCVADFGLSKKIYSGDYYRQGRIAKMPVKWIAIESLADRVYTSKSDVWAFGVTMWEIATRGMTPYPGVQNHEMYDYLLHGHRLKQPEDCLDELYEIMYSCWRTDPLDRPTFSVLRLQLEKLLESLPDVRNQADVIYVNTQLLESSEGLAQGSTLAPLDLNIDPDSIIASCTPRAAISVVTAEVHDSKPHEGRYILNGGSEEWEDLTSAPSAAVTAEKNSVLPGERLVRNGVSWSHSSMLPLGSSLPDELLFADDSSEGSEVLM
Outline: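 LANCE TR-FRET readout of ULight-poly GT phosphorylation by MER kinase; compound final range 0.042-2500 nM, 3-fold steps, 5 min enzyme preincubation. Reaction 60 min at room temperature in the dark with substrate/ATP (4× at 200 nM/20 μM), 1% DMSO, then stopped and developed 60 min; IC50 by curve fit.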

Structure (SMILES) | IC50 (Ba/F3 LMNA-NTRK1 cells) [nM] | IC50 (MER kinase) [nM] | IC50 (MHCC97H cells) [nM]
CCOc1ccn(-c2ccc(F)cc2)c(=O)c1C(=O)Nc1ccc(Oc2ccnc3cc(OCC#N)c4c(c23)OCCO4)c(F)c1 [Example 56, N-(4-((5-(cyanomethoxy)-2,3-dihydro-[1,4]dioxino[2,3-f]quinolin-10-yl)oxy)-3-fluorophenyl)-4-ethoxy-1-(4-fluorophenyl)-2-oxo-1,2-dihydropyridine-3-carboxamide] | < 50 | ≤ 50 | ≤ 50
CCOc1ccn(-c2ccc(F)cc2)c(=O)c1C(=O)Nc1ccc(Oc2ccnc3cc(OCCCN4CCC(C)(O)CC4)c4c(c23)OCCO4)c(F)c1 [Example 69, N-(4-((5-(3-(4-hydroxy-4-methylpiperidin-1-yl)propoxy)-2,3-dihydro-[1,4]dioxino[2,3-f]quinolin-10-yl)oxy)-3-fluorophenyl)-4-ethoxy-1-(4-fluorophenyl)-2-oxo-1,2-dihydropyridine-3-carboxamide] | < 50 | ≤ 50 | 50 to 200
CCOc1ccn(-c2ccc(F)cc2)c(=O)c1C(=O)Nc1ccc(Oc2ccnc3cc(OCCCO)c4c(c23)OCCO4)c(F)c1 [Example 54, N-(4-((5-(3-hydroxypropoxy)-2,3-dihydro-[1,4]dioxino[2,3-f]quinolin-10-yl)oxy)-3-fluorophenyl)-4-ethoxy-1-(4-fluorophenyl)-2-oxo-1,2-dihydropyridine-3-carboxamide] | < 50 | ≤ 50 | ≤ 50
CCOc1ccn(-c2ccc(F)cc2)c(=O)c1C(=O)Nc1ccc(Oc2ccnc3cc(OC(C)C)c4c(c23)OCCO4)c(F)c1 [Example 63, N-(4-((5-isopropoxy-2,3-dihydro-[1,4]dioxino[2,3-f]quinolin-10-yl)oxy)-3-fluorophenyl)-4-ethoxy-1-(4-fluorophenyl)-2-oxo-1,2-dihydropyridine-3-carboxamide] |  | ≤ 50 | 50 to 200
Cn1cc(C(=O)Nc2ccc(Oc3ccnc4cc(OC5CCOC5)c5c(c34)OCCO5)c(F)c2)c(=O)n(-c2ccc(F)cc2)c1=O (stereo not drawn) [Example 90, N-(3-fluoro-4-((5-((tetrahydrofuran-3-yl)oxy)-2,3-dihydro-[1,4]dioxino[2,3-f]quinolin-10-yl)oxy)phenyl)-3-(4-fluorophenyl)-1-methyl-2,4-dioxo-1,2,3,4-tetrahydropyrimidine-5-carboxamide] | < 50 | ≤ 50 | 
COc1cc2nccc(Oc3ccc(NC(=O)c4cn(CCO)c(=O)n(-c5ccc(F)cc5)c4=O)cc3F)c2c2c1OCCO2 [Example 45, N-(3-fluoro-4-((5-methoxy-2,3-dihydro-[1,4]dioxino[2,3-f]quinolin-10-yl)oxy)phenyl)-3-(4-fluorophenyl)-1-(2-hydroxyethyl)-2,4-dioxo-1,2,3,4-tetrahydropyrimidine-5-carboxamide] |  | ≤ 50 | 200 to 1000
CCOc1cn(-c2ccc(F)cc2C)nc1C(=O)Nc1ccc(Oc2ncnc3cc(OCCCN4CCOCC4)c4c(c23)OCCO4)c(F)c1 [Example 12, 1-(4-fluoro-2-methylphenyl)-N-(3-fluoro-4-((5-(3-morpholinopropoxy)-2,3-dihydro-[1,4]dioxino[2,3-f]quinazolin-10-yl)oxy)phenyl)-4-ethoxy-1H-pyrazole-3-carboxamide] |  | 50 to 500 | 50 to 200
COc1cc2ncnc(Oc3ccc(NC(=O)c4c(OC)ccn(-c5ccc(F)cc5)c4=O)cc3F)c2c2c1OCCO2 [Example 2, N-(3-fluoro-4-((5-methoxy-2,3-dihydro-[1,4]dioxino[2,3-f]quinazolin-10-yl)oxy)phenyl)-1-(4-fluorophenyl)-4-methoxy-2-oxo-1,2-dihydropyridine-3-carboxamide] |  | ≤ 50 | 200 to 1000
CC(C)n1cc(C(=O)Nc2ccc(Oc3ccnc4cc(OCCCO)c5c(c34)OCCO5)c(F)c2)c(=O)n(-c2ccc(F)cc2)c1=O [Example 79, N-(3-fluoro-4-((5-(3-hydroxypropoxy)-2,3-dihydro-[1,4]dioxino[2,3-f]quinolin-10-yl)oxy)phenyl)-3-(4-fluorophenyl)-1-isopropyl-2,4-dioxo-1,2,3,4-tetrahydropyrimidine-5-carboxamide] | < 50 | ≤ 50 | 
COc1cn(-c2ccc(F)cc2C)nc1C(=O)Nc1ccc(Oc2ncnc3cc(OCCCN4CCOCC4)c4c(c23)OCCO4)c(F)c1 [Example 11, 1-(4-fluoro-2-methylphenyl)-N-(3-fluoro-4-((5-(3-morpholinopropoxy)-2,3-dihydro-[1,4]dioxino[2,3-f]quinazolin-10-yl)oxy)phenyl)-4-methoxy-1H-pyrazole-3-carboxamide] |  | 50 to 500 | 200 to 1000

More lines, main results first:

IC50 (Ba/F3 LMNA-NTRK1 cells) [nM] | IC50 (MER kinase) [nM] | Structure (SMILES) | IC50 (MHCC97H cells) [nM]
< 50 | ≤ 50 | CCn1cc(C(=O)Nc2ccc(Oc3ccnc4cc(OCCOC)c5c(c34)OCCO5)c(F)c2)c(=O)n(-c2ccc(F)cc2)c1=O [Example 44, N-(3-fluoro-4-((5-(2-methoxyethoxy)-2,3-dihydro-[1,4]dioxino[2,3-f]quinolin-10-yl)oxy)phenyl)-3-(4-fluorophenyl)-1-ethyl-2,4-dioxo-1,2,3,4-tetrahydropyrimidine-5-carboxamide] | ≤ 50
 | ≤ 50 | COc1cc2ncnc(Oc3ccc(NC(=O)c4cccn(-c5ccc(F)cc5)c4=O)cc3F)c2c2c1OCCO2 [Example 1, N-(3-fluoro-4-((5-methoxy-2,3-dihydro-[1,4]dioxino[2,3-f]quinazolin-10-yl)oxy)phenyl)-1-(4-fluorophenyl)-2-oxo-1,2-dihydropyridine-3-carboxamide] | ≤ 50
< 50 | ≤ 50 | CCOc1ccn(-c2ccc(F)cc2)c(=O)c1C(=O)Nc1ccc(Oc2ccnc3cc(OCCCOC)c4c(c23)OCCO4)c(F)c1 [Example 55, N-(4-((5-(3-methoxypropoxy)-2,3-dihydro-[1,4]dioxino[2,3-f]quinolin-10-yl)oxy)-3-fluorophenyl)-4-ethoxy-1-(4-fluorophenyl)-2-oxo-1,2-dihydropyridine-3-carboxamide] | ≤ 50
< 50 | ≤ 50 | CCOc1ccn(-c2ccc(F)cc2)c(=O)c1C(=O)Nc1ccc(Oc2ccnc3cc(OCCCN(C)CCOC)c4c(c23)OCCO4)c(F)c1 [Example 70, N-(4-((5-(3-((2-methoxyethyl)(methyl)amino)propoxy)-2,3-dihydro-[1,4]dioxino[2,3-f]quinolin-10-yl)oxy)-3-fluorophenyl)-4-ethoxy-1-(4-fluorophenyl)-2-oxo-1,2-dihydropyridine-3-carboxamide] | ≤ 50
< 50 | ≤ 50 | CCOc1ccn(-c2ccc(F)cc2)c(=O)c1C(=O)Nc1ccc(Oc2ccnc3cc(OCCCN4CCOCC4)c4c(c23)OCCO4)cc1Cl [Example 73, N-(2-chloro-4-((5-(3-morpholinopropoxy)-2,3-dihydro-[1,4]dioxino[2,3-f]quinolin-10-yl)oxy)phenyl)-4-ethoxy-1-(4-fluorophenyl)-2-oxo-1,2-dihydropyridine-3-carboxamide] | ≤ 50
< 50 | ≤ 50 | CCOc1ccn(-c2ccc(F)cc2)c(=O)c1C(=O)Nc1ccc(Oc2ccnc3cc(OCCCN4CCC(C)(C)CC4)c4c(c23)OCCO4)c(F)c1 [Example 67, N-(4-((5-(3-(4,4-dimethylpiperidin-1-yl)propoxy)-2,3-dihydro-[1,4]dioxino[2,3-f]quinolin-10-yl)oxy)-3-fluorophenyl)-4-ethoxy-1-(4-fluorophenyl)-2-oxo-1,2-dihydropyridine-3-carboxamide] | ≤ 50
 | ≤ 50 | CCOc1ccn(-c2ccc(F)cc2)c(=O)c1C(=O)Nc1ccc(Oc2ncnc3cc(OC)c4c(c23)OCCO4)c(F)c1 [Example 3, N-(3-fluoro-4-((5-methoxy-2,3-dihydro-[1,4]dioxino[2,3-f]quinazolin-10-yl)oxy)phenyl)-1-(4-fluorophenyl)-4-ethoxy-2-oxo-1,2-dihydropyridine-3-carboxamide] | 50 to 200
< 50 | ≤ 50 | CC(=O)N1CCN(CCCOc2cc3nccc(Oc4ccc(NC(=O)c5cn(C(C)C)c(=O)n(-c6ccc(F)cc6)c5=O)cc4F)c3c3c2OCCO3)CC1 [Example 75, N-(3-fluoro-4-((5-(3-(4-acetylpiperazin-1-yl)propoxy)-2,3-dihydro-[1,4]dioxino[2,3-f]quinolin-10-yl)oxy)phenyl)-3-(4-fluorophenyl)-1-isopropyl-2,4-dioxo-1,2,3,4-tetrahydropyrimidine-5-carboxamide] | 
< 50 | ≤ 50 | Cn1cc(C(=O)Nc2ccc(Oc3ccnc4cc(OC5CCOCC5)c5c(c34)OCCO5)c(F)c2)c(=O)n(-c2ccc(F)cc2)c1=O [Example 91, N-(3-fluoro-4-((5-((tetrahydropyran-4-yl)oxy)-2,3-dihydro-[1,4]dioxino[2,3-f]quinolin-10-yl)oxy)phenyl)-3-(4-fluorophenyl)-1-methyl-2,4-dioxo-1,2,3,4-tetrahydropyrimidine-5-carboxamide] | 
< 50 | ≤ 50 | CC(C)n1cc(C(=O)Nc2ccc(Oc3ccnc4cc(OCCCN5CCCC5)c5c(c34)OCCO5)c(F)c2)c(=O)n(-c2ccc(F)cc2)c1=O [Example 77, N-(3-fluoro-4-((5-(3-(pyrrolidin-1-yl)propoxy)-2,3-dihydro-[1,4]dioxino[2,3-f]quinolin-10-yl)oxy)phenyl)-3-(4-fluorophenyl)-1-isopropyl-2,4-dioxo-1,2,3,4-tetrahydropyrimidine-5-carboxamide] | 
